Results from US11452712B2, “Methods and compositions involving (S)-bucindolol” (ARCA BIOPHARMA, INC., priority 2008, dated 2022).

Key:
β1AR Gly carrier = biological target: T1, β1AR Gly carrier (Homo sapiens, UniProt P08588); assay: Force development in isolated failing human right ventricular trabeculae, β1AR Gly carrier; assay type: cell-based
T1 construct: isolated failing human right ventricular trabeculae; from tissue; host or cells: isolated failing human right ventricular trabeculae, β1AR 389 Gly carrier genotypes
T1 sequence (P08588 whole entry): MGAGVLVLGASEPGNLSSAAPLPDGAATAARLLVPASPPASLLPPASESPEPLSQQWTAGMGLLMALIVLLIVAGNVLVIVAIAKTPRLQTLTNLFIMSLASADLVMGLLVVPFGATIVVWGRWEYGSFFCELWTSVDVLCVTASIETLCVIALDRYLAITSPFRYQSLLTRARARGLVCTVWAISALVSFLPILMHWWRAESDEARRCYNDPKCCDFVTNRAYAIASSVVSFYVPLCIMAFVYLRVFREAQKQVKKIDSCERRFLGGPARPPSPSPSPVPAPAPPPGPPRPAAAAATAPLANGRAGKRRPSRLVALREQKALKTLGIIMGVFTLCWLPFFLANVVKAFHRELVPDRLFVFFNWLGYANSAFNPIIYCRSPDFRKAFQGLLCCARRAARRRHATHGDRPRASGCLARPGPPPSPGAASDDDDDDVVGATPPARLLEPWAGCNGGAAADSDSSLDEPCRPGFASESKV

β1AR Arg/Arg = biological target: T2, β1AR Arg/Arg (Homo sapiens, UniProt P08588, G389R); assay: Force development in isolated failing human right ventricular trabeculae, β1AR Arg/Arg; assay type: cell-based
T2 construct: isolated failing human right ventricular trabeculae; from tissue; host or cells: isolated failing human right ventricular trabeculae, β1AR Arg/Arg genotype
T2 sequence (P08588 whole entry G389R): as the sequence (P08588 whole entry) above, with G389R counted along it

[1] = test system: Human umbilical vein endothelial cells; assay: CaI-stimulated ONOO− release in HUVECs (nanosensor); assay type: cell-based; details: 1.0 μM drug; for ONOO− levels: CaI stimulation, mean±S.D.; for reduction of ONOO− levels: versus control
Text: FIG. 1. Schematic diagram of a NO nanosensor placed in close proximity to the surface of a single endothelial cell. The nanosensor measures the levels of NO, O2^−, and ONOO^− from the intact endothelium in real time. The sensors are made by depositing a sensing material on the tip of carbon fiber with a diameter of about 0.5 μm. The fibers are sealed with nonconductive epoxy and electrically connected to wires (gold, copper) with conductive silver epoxy.
(§1) Human umbilical vein endothelial cells were isolated into primary cultures from healthy female donors by Clonetics (San Diego, Calif.) and purchased as proliferating cells. All cell culture donors were healthy, with no pregnancy or prenatal complications. None of the donors took any drugs regularly and all were nonsmokers and consumed regular caloric/content diet. The cultured cells were incubated in 95% air/5% CO2 at 37° C. and passage by an enzymatic (trypsin) procedure. The confluent cells (4 to 5×10^5 cells per 35-mm dish) were placed with minimum essential medium containing 3 mM L-arginine and 0.1 mM (6R)-5,6,7,8-tetrahydrobiopterin (BH4). Before the experiments, the cells (from second or third passage) were rinsed twice with Tyrode-HEPES buffer with 1.8 mM CaCl2. Bucindolol and its enanatiomers were obtained from Arca Discovery (Denver, Colo.).
(§2) The quantification of each analyte (concentration in nmol/L) was performed using a maximum current from amperograms and standard calibration curves. The reproducibility of measurements with nanosensors is relatively high, as previously described (Lvovich and Scheeline, 1997; Malinski and Taha, 1992). […] The sensors were slowly raised 5±2 μm from the surface of a single endothelial cell.
(§3) The HUVEC preparation is stable over the course of these experiments with the cells remaining viable and active responses to NO stimulation in culture for >24 hours. For robust statistical analysis, randomly selected cells were used for each concentration and type of drug used in these analyses.

[2] = test system: Human umbilical vein endothelial cells; assay: CaI-stimulated NO/ONOO− release ratio in HUVECs; assay type: cell-based; details: for increase in NO/ONOO− ratio: 1.0 μM drug; for favorable effect on endothelial function as compared to bucindolol racemate: NO and ONOO− release, HUVECs
Procedure: as §1
(§4) Measurement of NO was carried out with electrochemical nanosensors (FIG. 1). Their design was based on previously developed and well-characterized chemically modified carbon-fiber technology (Lvovich and Scheeline, 1997; Malinski and Taha, 1992). Each of the nanosensors was constructed by depositing a sensing material on the tip of a carbon fiber (length 4-5 μm, diameter 0.2-0.5 μm). The fibers were sealed with nonconductive epoxy and electrically connected to copper wires with conductive silver epoxy. The inventors used a conductive film of polymeric nickel (II) tetrakis (3-methoxy-4-hydroxyphenyl) porphyrin for the NO-sensor.
as §2
The most comprehensive measurement of endothelial function is the ratio of NO to
ONOO^− following treatment with these agents. […] The basis for these differences is not understood but may be due to genetic variability in the eNOS protein. Bucindolol racemate (1.0 μM) increased the NO/ONOO^− ratio in white donors (49%), Mexican American donors (23%), and African American donors (38%) as shown in FIGS. 11-13. […] Again, the favorable effects of bucindolol and its enanatiomers were much more apparent at the higher dose (10.0 μM) by at least two fold. The effect at the high concentration was especially evident in higher risks populations (African Americans, Mexican Americans).

[3] = cited from earlier work
[4] = test system: Human umbilical vein endothelial cells; assay: CaI-stimulated NO release in HUVECs (electrochemical nanosensor); assay type: cell-based; details: 1.0 μM drug, 6 hr pretreatment; for NO release: 1.0 μM CaI stimulation, mean±S.D.; for increase in NO release: versus control
Procedure: as §1, §4
The NO nanosensors (diameter 1-2 μm) with a platinum wire (0.1 mm) counter electrode and saturated calomel reference electrode (SCE) were applied. Differential pulse voltammetry (DPV) and amperometry were performed with a computer-based Gamry VFP600 multichannel potentiostat. DPV was used to measure the basal NO concentrations, and amperometry was used to measure changes in NO concentrations from its basal level with time. The DPV current at the peak potential characteristic for NO oxidation (0.65 V) […] was directly proportional to the local concentrations of these compounds in the immediate vicinity of the sensor. Linear calibration curves (current vs. concentration) were constructed for each sensor from 10 nM to 3 μM before and after measurements with aliquots of NO standard solutions, respectively. The detection limit of the sensors was 1.0 nM.
as §2, §3

β1 389 Gly/Gly receptor = biological target: T3, β1 389 Gly/Gly receptor (Homo sapiens, UniProt P08588); assay: Competition binding in human LV membranes, β1 389 Gly/Gly; details: 83% β1 AR, genotype 389 Gly/Gly
T3 construct: human LV membranes that are 83% β1; AR and genotypically 389 Gly/Gly; from tissue; host or cells: human left ventricular membranes, one patient, genotype 389 Gly/Gly
T3 sequence (P08588 whole entry): as the sequence (P08588 whole entry) above
Procedure: (§5) FIG. 14A, 14B. 14A—Competition curve between S- or R-bucindolol in human LV membranes that are 86% β1. AR and genotypically 389 Arg/Arg. The respective Kis are 0.49 nM and 14.0 nM for the S- and R-isomers. 14B—Competition curve between S- or R-bucindolol in human LV membranes that are 83% β1. AR and genotypically 389 Gly/Gly. The respective Kis are 0.59 nM and 26.3 nM for the S- and R-isomers.
(§6) FIG. 14 gives the binding of S- and R-bucindolol in left ventricular membranes prepared from one patient who had the β1 389 Arg/Arg receptor (FIG. 14A), and another with the Gly/Gly (FIG. 14B) genotype. As can be observed, the S-isomer has much higher affinity, in both genotypes. In addition, the Kis are similar for both the S- (0.5-0.6 nM) and R- (around 14-26 nM) isomers in the Arg/Arg and Gly/Gly preparations. Similar results were obtained in the presence of Gpp(NH)p.

β1 389 Arg/Arg receptor = biological target: T4, β1 389 Arg/Arg receptor (Homo sapiens, UniProt P08588, G389R); assay: Competition binding in human LV membranes, β1 389 Arg/Arg
T4 construct: left ventricular membranes prepared from one patient who had the β1 389 Arg/Arg receptor; from tissue; host or cells: human left ventricular membranes, one patient, genotype 389 Arg/Arg
T4 sequence (P08588 whole entry G389R): as the sequence (P08588 whole entry) above, with G389R counted along it
Procedure: as §5, §6

[5] = human LV membranes, 86% β1 AR, genotype 389 Arg/Arg
[6] = span over the Arg/Arg and Gly/Gly preparations

SMILES	ONOO− levels ([1]; African American donors) [nM]	reduction of ONOO− levels ([1]; African American donors) [%]	ONOO− levels ([1]; Mexican American donors) [nM]	reduction of ONOO− levels ([1]; Mexican American donors) [%]	ONOO− levels ([1]; non-Hispanic white donors) [nM]	reduction of ONOO− levels ([1]; non-Hispanic white donors) [%]	NO release ([4]; African American donors) [nM]	increase in NO release ([4]; African American donors) [%]	NO release ([4]; Mexican American donors) [nM]	increase in NO release ([4]; Mexican American donors) [%]	NO release ([4]; non-Hispanic white donors) [nM]	increase in NO release ([4]; non-Hispanic white donors) [%]	Ki (β1 389 Gly/Gly receptor) [nM]	favorable effect on endothelial function as compared to bucindolol racemate [2]	Ki (β1 389 Arg/Arg receptor; [5]) [nM]	Ki (β1 389 Arg/Arg receptor; [6]) [nM]	further results
CC(C)(Cc1c[nH]c2ccccc12)NCC(O)COc1ccccc1C#N (racemic) [bucindolol, 2-(3-(1-(1H-indol-3-yl)-2-methylpropan-2-ylamino)-2-hydroxypropoxy)benzonitrile]	378 ± 30	12	422 ± 27	14	244 ± 29	19	306 ± 25	22	321 ± 28	5	475 ± 27	16					functional behaviour at the receptor (force development) (β1AR Gly carrier; in the presence of forskolin): neutral antagonist; functional behaviour at the receptor (force development) (β1AR Gly carrier; low activation states): inverse agonist; functional behaviour at the receptor (force development) (β1AR Arg/Arg; high signal transduction, adenylyl cyclase activated by forskolin): inverse agonist; functional behaviour at the receptor (force development) (β1AR Arg/Arg; low levels of signal transduction (low receptor activation)): neutral antagonist; increase in NO/ONOO− ratio ([2]; African American donors): 38%; increase in NO/ONOO− ratio ([2]; Mexican American donors): 23%; increase in NO/ONOO− ratio ([2]; white donors): 49%; hazard ratio for the primary endpoint of all-cause mortality ([3]; advanced heart failure, at premature stop of trial, C.I.s 0.78-1.02): 0.90; mortality versus placebo (in words) ([3]; at early termination of BEST): no significant difference in mortality; reduction of mortality or heart failure hospitalization ([3]; entire BEST cohort, p<0.0001): 19%
CC(C)(Cc1c[nH]c2ccccc12)NCC(O)COc1ccccc1C#N (single isomer, unassigned) [(R)-bucindolol]													26.3	less activity	14	14 to 26	
CC(C)(Cc1c[nH]c2ccccc12)NCC(O)COc1ccccc1C#N (single isomer, unassigned) [(S)-bucindolol]	352 ± 26	18	419 ± 34	15	240 ± 24	23	318 ± 16	27	358 ± 32	17	553 ± 35	35	0.59	more pronounced	0.49	0.5 to 0.6	
CC(C)NCC(O)COc1ccc(CC(N)=O)cc1 (stereo not shown) [atenolol]																	effect on NO/ONOO− ratio (in words) ([2]; 1.0 and 10.0 μM, three donor groups): failed to produce an effect
